Consider five compounds from ChEMBL document CHEMBL2157974, “Viridin analogs derived from steroidal building blocks” (Bioorg Med Chem Lett, 2012).

For data set [1], the target named is PI3-kinase p110-alpha/p85-alpha (Homo sapiens, UniProt P42336). Kind of data set: Inhibition of human recombinant P110alpha/p85alpha using phosphatidyl inositol as substrate after 1 hr by ADP-Glo Kinase assay. It is filed as protein-complex assay. In general terms: In ADP-Glo the light output rises with the ADP produced.
For a further data set, the system named is MCF7. Kind of data set: Cytotoxicity against human MCF7 cells after 72 hrs by MTS/PMS assay. Conditions: MCF7, 72 h. It is filed as functional, cell-based.
Data set [2] in a line: Lipophilicity, log P of the compound. It is filed as physicochemical. Conditions: octanol/water.
The nature of data set [3]: Inhibition of PI3K.

Chain of PI3-kinase p110-alpha/p85-alpha (P27986 whole entry): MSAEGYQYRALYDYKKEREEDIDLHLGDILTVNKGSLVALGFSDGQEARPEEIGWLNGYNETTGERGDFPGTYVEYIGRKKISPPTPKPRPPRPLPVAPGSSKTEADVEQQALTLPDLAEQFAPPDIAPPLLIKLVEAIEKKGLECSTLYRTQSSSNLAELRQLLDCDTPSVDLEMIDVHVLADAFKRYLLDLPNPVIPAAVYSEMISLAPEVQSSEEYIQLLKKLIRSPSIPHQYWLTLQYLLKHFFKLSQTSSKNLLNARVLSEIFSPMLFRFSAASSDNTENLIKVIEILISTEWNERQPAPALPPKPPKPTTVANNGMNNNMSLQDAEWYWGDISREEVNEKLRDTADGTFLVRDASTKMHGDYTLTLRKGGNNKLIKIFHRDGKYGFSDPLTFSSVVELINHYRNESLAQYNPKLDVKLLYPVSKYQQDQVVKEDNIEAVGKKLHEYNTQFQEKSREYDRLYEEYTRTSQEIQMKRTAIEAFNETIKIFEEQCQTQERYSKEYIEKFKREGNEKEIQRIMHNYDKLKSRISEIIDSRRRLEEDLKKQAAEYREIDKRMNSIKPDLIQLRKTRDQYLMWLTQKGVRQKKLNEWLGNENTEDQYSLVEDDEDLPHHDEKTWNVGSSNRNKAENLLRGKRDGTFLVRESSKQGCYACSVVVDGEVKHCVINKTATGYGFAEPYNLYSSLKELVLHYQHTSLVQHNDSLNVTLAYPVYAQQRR
Chain of PI3-kinase p110-alpha/p85-alpha (P42336 whole entry): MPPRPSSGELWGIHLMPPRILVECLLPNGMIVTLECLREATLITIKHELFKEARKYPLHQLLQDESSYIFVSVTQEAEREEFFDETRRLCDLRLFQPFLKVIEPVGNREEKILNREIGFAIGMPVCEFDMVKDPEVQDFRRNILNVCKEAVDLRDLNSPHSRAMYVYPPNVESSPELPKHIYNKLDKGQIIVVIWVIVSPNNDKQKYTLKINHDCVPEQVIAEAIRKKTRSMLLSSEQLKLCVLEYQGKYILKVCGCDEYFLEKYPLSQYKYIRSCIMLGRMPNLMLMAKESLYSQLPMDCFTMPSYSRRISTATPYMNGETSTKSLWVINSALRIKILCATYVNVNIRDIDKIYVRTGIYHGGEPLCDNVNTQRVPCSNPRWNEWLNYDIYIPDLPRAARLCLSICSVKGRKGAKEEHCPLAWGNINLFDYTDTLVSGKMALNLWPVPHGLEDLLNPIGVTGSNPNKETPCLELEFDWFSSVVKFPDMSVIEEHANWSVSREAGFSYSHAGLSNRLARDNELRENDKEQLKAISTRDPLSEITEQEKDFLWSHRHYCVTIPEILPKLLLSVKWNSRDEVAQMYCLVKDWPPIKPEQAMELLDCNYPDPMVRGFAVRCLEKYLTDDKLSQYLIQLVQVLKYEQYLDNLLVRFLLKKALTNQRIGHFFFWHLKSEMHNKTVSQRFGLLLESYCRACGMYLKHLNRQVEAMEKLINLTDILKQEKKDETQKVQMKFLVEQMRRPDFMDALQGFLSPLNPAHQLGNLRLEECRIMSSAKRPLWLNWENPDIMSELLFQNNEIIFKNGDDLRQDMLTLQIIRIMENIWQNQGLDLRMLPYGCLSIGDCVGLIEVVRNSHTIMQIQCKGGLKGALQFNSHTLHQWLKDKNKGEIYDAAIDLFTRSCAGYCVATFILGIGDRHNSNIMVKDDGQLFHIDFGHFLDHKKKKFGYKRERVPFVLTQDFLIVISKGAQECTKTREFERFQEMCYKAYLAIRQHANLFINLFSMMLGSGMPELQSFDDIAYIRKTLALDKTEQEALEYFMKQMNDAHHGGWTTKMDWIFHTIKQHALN

One may read the IC50 as the point on the concentration scale where inhibition reaches its midpoint. For the compound `C=CCN/C=C1/C(=O)CC[C@@]2(C)C1=C(O)C(=O)[C@@H]1[C@@H]2CC[C@]2(C)C(=O)CC[C@@H]12`, the IC50 worked out at 271 nM in data set [1] and 37.7 µM in the data set on MCF7.
A word on the logP: it is the decadic logarithm of the partition coefficient of the neutral form, usually between octanol and water. The low end stands for a more hydrophilic compound, the high end for a more lipophilic compound. Compound `C[C@]12CCC(=O)c3coc(c31)C(=O)[C@@H]1[C@@H]2CC[C@]2(C)C(=O)CC[C@@H]12` showed a logP in data set [2] of 2.65. Further, the concentration for half-maximal inhibition (IC50) in data set [1] came to 339 nM; with MCF7 it was 22.9 µM.
As to `COC[C@H]1OC(=O)c2coc3c2[C@@]1(C)C1=C(C3=O)[C@@H]2CCC(=O)[C@@]2(C)C[C@H]1OC(C)=O` [WORTMANNIN], the IC50 was 2 nM in data set [3] and above 100 µM in the data set on MCF7.
`C[C@]12CCC(=O)c3coc(c31)C(=O)C[C@@H]2O` (racemic): the lipophilicity (logP) in data set [2] is 0.58. Also, the IC50 was 178 nM in data set [1] and above 100 µM in the data set with MCF7.
Take `CO[C@@H]1C(=O)c2coc3c2[C@@](C)(c2ccc4c(c2C3=O)CCC4=O)[C@@H]1O` [VIRIDIN]: in data set [3], the IC50 amounted to 2 nM.
